Patent EP1228058B1, “BENZOPYRANYL GUANIDINE DERIVATIVES, PROCESS FOR PREPARATION THEREOF, AND PHARMACEUTICAL COMPOSITIONS CONTAINING THEM” (Dongbu Hannong Chemical Co., Ltd., priority 1999, dated 2001)

Columns and labels:
[1] = tested on: ischemic heart models of beagle dogs; experiment: Heart protective (anti-ischemic) activity in ischemic heart models of anesthetized beagle dogs; assay type: in vivo; conditions: total dose 2 mg/kg infused i.v. over 40 min, 90 min occlusion, 5 h reperfusion
Experimental: In order to determine whether the compounds of the formula 1 are protective for the ischemic hearts of larger animals, experiments determining the anti-ischemic effects of the compounds on beagle dogs were conducted as follows. The experiments on beagle dogs followed the method of Grover et al.' (G. J. Grover et al., J. Cardiovasc. Pharmacol. 25, 40 (1995)).
After being anesthetized by an intravenous injection of pentobarbital at a dose of 35 mg/kg, male beagle dogs (8-12 kg) were further infused with pentobarbital sodium at a dose of 3-4 mg/kg through the right cephalic vein throughout the experiments, so as to keep the anesthesia constant. […] The heart rate was measured by a tachometer, such as that manufactured by Gould Inc., OH, U.S.A., identified as Biotachometer. In addition, all of the changes occurring during the experiment were continuously recorded through the Gould 2000 chart recorder, manufactured by Gould Inc.
The fifth intercostal space was incised to open the thorax and the LAD was separated from its surrounding tissues. […] The LAD part upstream of the silk ligature was isolated from adjacent tissues and the blood flow was measured quantitatively. […] Using polygraph such as Grass Model 7E, the electrocardiogram was measured and read (Lead II). […]

[2] = tested on: newborn rats; experiment: Protection against hypoxic brain injury in newborn rats (proton MRS); assay type: in vivo; conditions: 50mg/Kg intraperitoneally 1 hr before hypoxia; proton MRS 1 day after injury
Text: Focal, hypoxic brain injury model in newborn rats are being most frequently used to study infant asphyxia, because whose maturity of brain is similar to that of human infant, and it is easy to get enough number of animals required for the determination of effects. It was reported that the lipid peak was increased in MRS (magnetic resonamce spectroscopy) by ischemic neuronal cell injury due to the destruction of cell membrane including blood-brain barrier [A. Bizzi et. al., Magnetic Resonance Imagin 14 581-592 (1996)], and also the concentration of lipid and apotosis are closely correlated to apotosis [Van der A. Toorn et al., Magnetic Resonamce in Medicine, 36 , 914-922 (1996)]. N-Acetylaspartae (NAA) and creatine (Cr) are markers of neuronal cells. Then it was confirmed that the value of lipid/NAA (N-acetylaspartae) and lipid/Cr (creatine) are correlated with the morphological change and severity of apoptosis on hypoxic brain damage.
New born rats (within 7 days, 10-15 g) were placed in hypoxic chamber for 2 hr to induce hypoxia, and test compounds were intraperitoneally injected before 1 hr of hypoxia. Proton MRS was obtained at 1 day after brain injury, then the value of lipid/NAA and lipid/Cr were determined.

[3] = ORAC (oxygen-radical absorbance capacity) assay; assay type: biochemical; conditions: 1 ORAC unit = net protection by 1 uM Trolox
Experimental: The method utilized β-PE (β-phycoerythrin) as an indicator protein, and AAPH (2,2'-azobis(2-amidinopropane) dihydrochloride) as a peroxy radical generator. Reaction mixtures consisted of test compounds (10^-6M and 10^-4M), β-PE (1.76 x 10^-8M), and AAPH (3 x 10^-3 M) in 75 mM phosphate buffer (pH 7.0). A final volume of 2 ml was used in 24 well plates. Test compounds were first dissolved in acetone and then added to the reaction mixture. Once AAPH was added, the reaction was initiated at 37 °C and the fluorescence (485 nm excitation, 590 nm emission) was measured every 5 min using Fluorescence reader (FL600, Biotek Instrument). The ORAC units were calculated based on the area under the fluorescence curve of β-PE in the presence of the test compound compared to the area generated by 1 uM Trolox. 1 ORAC unit represents the net protection provided by 1 uM Trolox.

[4] = tested on: diabetic rats; experiment: Nociceptive test (hot plate test) in diabetic rats; assay type: in vivo; conditions: 50 °C hot plate
Experimental: Effects on nociceptive responses of test compounds in rats were examined using hot plate. The same methods were applied for the induction of diabetes and treatment of test compound in rats. Rats were placed onto 50 °C hot plate, then latencies of nociceptive action such as licking were determined. The recovery (%) of nociceptive responses in diabetic rats was calculated according to the following mathematical […]. [Mathematical formula 5] Recovery(%) =(Response in treated group - Response in diabetic control)/(Response in normal control-Response in diabetic control)x100 [formula]

SMILES	Anti-ischemic Activity (in vivo, dogs) (2 mg/kg/40 i.v.) min,i.v.) IZ/AAR (%) [1] [%]	Lipid/Cr [2]	Lipid/NAA [2]	ORAC units ([3]; Conc. 10^-4 M) [ORAC units]	ORAC units ([3]; Conc. 10^-6 M) [ORAC units]	Nociceptive response ([4]; latency of licking) [s]	Recovery (%) ([4]; nociceptive responses)
COC(OC)[C@@]1(C)Oc2ccc([N+](=O)[O-])cc2[C@H](NC(=NC#N)NCc2ccccc2)[C@H]1O [Example 24, (2S, 3R, 4S)-N''-cyano-N-(6-nitro-3,4-dihydro-3-hydroxy-2-methyl-2-dimethoxymethyl-2H-benzopyran-4-yl)-N'-benzylguanidine]	28.03						
COC(OC)[C@@]1(C)Oc2ccc(N)cc2[C@@H](NC(=NC#N)NCc2ccccc2)[C@@H]1O [Example 40, (2S, 3S, 4R)-N''-cyano-N-(6 - amino-3,4-dihydro-3-hydroxy-2-methyl-2-dimethoxymethyl-2H-benzopyran-4-yl)-N'-benzylguanidine]		2.33	2.51	3.250	2.047	4.791	106.5
